Source: patent US20250145594A1, “MODULATORS OF THE INTEGRATED STRESS PATHWAY” (Calico Life Sciences LLC, priority 2020, published 2025)

Tested on: ATF4 luciferase reporter in HEK293T cells
Assay: ATF4-Luc assay (in vitro model of VWMD)
Format: cell-based, human
Settings: Homo sapiens, HEK-293T, 7 h, HEK293T cells carrying the ATF4 luciferase reporter, 1 μg/mL tunicamycin, One Glo luminescence
In short: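 Stable HEK293T line expressing firefly luciferase behind the human ATF4 5′-UTR, treated with 1 μg/mL tunicamycin plus compound for 7 hours. Luminescence read with One Glo; EC50 determined.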

O=C(NC12CC(n3cc(-c4ccc(Cl)c(F)c4)nn3)(C1)C2)[C@H]1C[C@@H](O)c2cc(Cl)ccc2O1 [Compound 358, (2R,4R)-6-chloro-N-{3-[4-(4-chloro-3-fluorophenyl)-1H-1,2,3-triazol-1-yl]bicyclo[1.1.1]pentan-1-yl}-4-hydroxy-3,4-dihydro-2H-1-benzopyran-2-carboxamide]
EC50: < 10 nM

O=C(NC12CC(n3cc(CN4CC[C@H](OC(F)(F)F)C4)cn3)(C1)C2)[C@H]1C[C@@H](O)c2cc(Cl)ccc2O1 [Compound 339, (2R,4R)-6-chloro-4-hydroxy-N-[3-(4-{[(3S)-3-(trifluoromethoxy)pyrrolidin-1-yl]methyl}-1H-pyrazol-1-yl)bicyclo[1.1.1]pentan-1-yl]-3,4-dihydro-2H-1-benzopyran-2-carboxamide]
EC50: 250 to 500 nM

O=C(NC12CC(n3cc(OCCOC(F)(F)F)cn3)(C1)C2)[C@@H]1C[C@@H](O)c2cc(Cl)c(F)cc2O1 [Compound 432, (2S,4R)-6-chloro-7-fluoro-4-hydroxy-N-(3-{4-[2-(trifluoromethoxy)ethoxy]-1H-pyrazol-1-yl}bicyclo[1.1.1]pentan-1-yl)-3,4-dihydro-2H-1-benzopyran-2-carboxamide]
EC50: < 10 nM

COc1ccc2nn([C@H]3CC[C@H](NC(=O)COc4ccc(Cl)c(Cl)c4)CC3)cc2n1 [Compound 596, 2-(3,4-dichlorophenoxy)-N-[(1r,4r)-4-(5-methoxy-2H-pyrazolo[4,3-b]pyridin-2-yl)cyclohexyl]acetamide]
EC50: < 10 nM

O=C(COC12CC(NC(=O)[C@H]3C[C@@H](O)c4cc(Cl)ccc4O3)(C1)C2)N[C@H]1C[C@@H](OC(F)(F)F)C1 [Compound 342, (2R,4R)-6-chloro-4-hydroxy-N-[3-(2-oxo-2-{[cis-3-(trifluoromethoxy)cyclobutyl]amino}ethoxy)bicyclo[1.1.1]pentan-1-yl]-3,4-dihydro-2H-1-benzopyran-2-carboxamide]
EC50: 10 to 50 nM

O=C(NC12CC(n3cc([C@H]4C[C@@H](OC(F)F)C4)nn3)(C1)C2)[C@H]1C[C@@H](O)c2cc(Cl)ccc2O1 [Compound 544, (2R,4R)-6-chloro-N-(3-{4-[(1s,3S)-3-(difluoromethoxy)cyclobutyl]-1H-1,2,3-triazol-1-yl}bicyclo[1.1.1]pentan-1-yl)-4-hydroxy-3,4-dihydro-2H-1-benzopyran-2-carboxamide]
EC50: < 10 nM

O=C(N[C@H]1CC[C@H](n2cc(N3CC[C@@H](OC(F)(F)F)C3)cn2)CC1)[C@H]1C[C@@H](O)c2cc(Cl)c(F)cc2O1 [Compound 582, (2R,4R)-6-chloro-7-fluoro-4-hydroxy-N-[(1R,4R)-4-{4-[(3R)-3-(trifluoromethoxy)pyrrolidin-1-yl]-1H-pyrazol-1-yl}cyclohexyl]-3,4-dihydro-2H-1-benzopyran-2-carboxamide]
EC50: 10 to 50 nM

O=C(NC12CC(n3cc(C(=O)N4CC(CC(F)F)C4)cn3)(C1)C2)[C@H]1C[C@@H](O)c2cc(Cl)ccc2O1 [Compound 377, (2R,4R)-6-chloro-N-(3-{4-[3-(2,2-difluoroethyl)azetidine-1-carbonyl]-1H-pyrazol-1-yl}bicyclo[1.1.1]pentan-1-yl)-4-hydroxy-3,4-dihydro-2H-1-benzopyran-2-carboxamide]
EC50: 250 to 500 nM

O=C(COc1ccc(Cl)c(F)c1)N[C@H]1C[C@H]2O[C@@H]1CC2c1nnc([C@H]2C[C@@H](OC(F)(F)F)C2)o1 (mixture of isomers) [Compound 168, 2-(4-chloro-3-fluorophenoxy)-N-[rac-(1R,2S,4R,5S)-5-{5-[cis-3-(trifluoromethoxy)cyclobutyl]-1,3,4-oxadiazol-2-yl}-7-oxabicyclo[2.2.1]heptan-2-yl]acetamide]
EC50: 250 to 500 nM

O=C(CO[C@H]1C[C@@H](OC(F)(F)F)C1)N[C@H]1C[C@H]2C[C@@H]1C[C@@H]2NC(=O)[C@H]1C[C@@H](O)c2cc(C(F)(F)F)c(F)cc2O1 [Compound 646, (2R,4R)-7-fluoro-4-hydroxy-N-[(1R,2S,4R,5S)-5-(2-{[(1s,3R)-3-(trifluoromethoxy)cyclobutyl]oxy}acetamido)bicyclo[2.2.1]heptan-2-yl]-6-(trifluoromethyl)-3,4-dihydro-2H-1-benzopyran-2-carboxamide]
EC50: < 10 nM

O=C(NC12CC(c3ccc(OCCCOC(F)(F)F)nc3)(C1)C2)[C@H]1C[C@@H](O)c2cc(Cl)ccc2O1 [Compound 438, (2R,4R)-6-chloro-4-hydroxy-N-(3-{6-[3-(trifluoromethoxy)propoxy]pyridin-3-yl}bicyclo[1.1.1]pentan-1-yl)-3,4-dihydro-2H-1-benzopyran-2-carboxamide]
EC50: 10 to 50 nM

O=C(NC12CC(n3cc(N4CCN(CC(F)(F)F)CC4=O)cn3)(C1)C2)[C@H]1C[C@@H](O)c2cc(Cl)ccc2O1 [Compound 383, (2R,4R)-6-chloro-4-hydroxy-N-(3-{4-[2-oxo-4-(2,2,2-trifluoroethyl)piperazin-1-yl]-1H-pyrazol-1-yl}bicyclo[1.1.1]pentan-1-yl)-3,4-dihydro-2H-1-benzopyran-2-carboxamide]
EC50: < 10 nM

COc1ccc2nn(C34CCC(NC(=O)[C@H]5C[C@@H](O)c6cc(Cl)ccc6O5)(C3)C4)cc2c1 [Compound 652, (2R,4R)-6-chloro-4-hydroxy-N-[4-(5-methoxy-2H-indazol-2-yl)bicyclo[2.1.1]hexan-1-yl]-3,4-dihydro-2H-1-benzopyran-2-carboxamide]
EC50: 10 to 50 nM

O=C(NC12CC(c3ccnc(OCCOC(F)(F)F)n3)(C1)C2)[C@H]1C[C@@H](O)c2cc(Cl)c(F)cc2O1 [Compound 469, (2R,4R)-6-chloro-7-fluoro-4-hydroxy-N-(3-{2-[2-(trifluoromethoxy)ethoxy]pyrimidin-4-yl)bicyclo[1.1.1]pentan-1-yl}-3,4-dihydro-2H-1-benzopyran-2-carboxamide]
EC50: < 10 nM

O=C(NC12CC(c3ccnc(-n4cc(C(F)(F)F)cn4)c3)(C1)C2)[C@H]1C[C@@H](O)c2cc(Cl)c(F)cc2O1 [Compound 561, (2R,4R)-6-chloro-7-fluoro-4-hydroxy-N-(3-{2-[4-(trifluoromethyl)-1H-pyrazol-1-yl]pyridin-4-yl}bicyclo[1.1.1]pentan-1-yl)-3,4-dihydro-2H-1-benzopyran-2-carboxamide]
EC50: < 10 nM

O=C(NC12CC(n3cc(C(=O)N4CC[C@H](OC(F)(F)F)C4)cn3)(C1)C2)[C@@H]1C[C@@H](O)c2cc(C(F)(F)F)ccc2O1 [Compound 378, (2S,4R)-4-hydroxy-N-(3-{4-[(3S)-3-(trifluoromethoxy)pyrrolidine-1-carbonyl]-1H-pyrazol-1-yl}bicyclo[1.1.1]pentan-1-yl)-6-(trifluoromethyl)-3,4-dihydro-2H-1-benzopyran-2-carboxamide]
EC50: < 10 nM

O=C(NC12CCC(n3cc(OCCOC(F)(F)F)cn3)(C1)C2)[C@H]1C[C@@H](O)c2cc(Cl)ccc2O1 [Compound 594, (2R,4R)-6-chloro-4-hydroxy-N-(4-{4-[2-(trifluoromethoxy)ethoxy]-1H-pyrazol-1-yl}bicyclo[2.1.1]hexan-1-yl)-3,4-dihydro-2H-1-benzopyran-2-carboxamide]
EC50: 50 to 250 nM

CCO[C@H]1CCN(C(=O)c2cnn(C34CC(NC(=O)[C@H]5C[C@@H](O)c6cc(Cl)ccc6O5)(C3)C4)c2)C1 [Compound 359, (2R,4R)-6-chloro-N-(3-{4-[(3S)-3-ethoxypyrrolidine-1-carbonyl]-1H-pyrazol-1-yl}bicyclo[1.1.1]pentan-1-yl)-4-hydroxy-3,4-dihydro-2H-1-benzopyran-2-carboxamide]
EC50: 10 to 50 nM

O=C(COc1ccc(C(F)(F)F)c(F)c1)NC12CC(n3cc(C(=O)N4CC[C@H](OC(F)(F)F)C4)cn3)(C1)C2 [Compound 621, 2-[3-fluoro-4-(trifluoromethyl)phenoxy]-N-(3-{4-[(3S)-3-(trifluoromethoxy)pyrrolidine-1-carbonyl]-1H-pyrazol-1-yl}bicyclo[1.1.1]pentan-1-yl)acetamide]
EC50: < 10 nM

O=C(NC12CC(n3cc(OCCOC(F)(F)F)cn3)(C1)C2)[C@@H]1CNc2cc(Cl)ccc2O1 [Compound 519, (2S)-6-chloro-N-(3-{4-[2-(trifluoromethoxy)ethoxy]-1H-pyrazol-1-yl}bicyclo[1.1.1]pentan-1-yl)-3,4-dihydro-2H-1,4-benzoxazine-2-carboxamide]
EC50: 10 to 50 nM

O=C(NC12CC(n3cc(C(=O)N4CC[C@H](OC(F)(F)F)C4)cn3)(C1)C2)[C@@H]1C[C@@H](O)c2cc(Cl)ccc2O1 [Compound 324, (2S,4R)-6-chloro-4-hydroxy-N-(3-{4-[(3S)-3-(trifluoromethoxy)pyrrolidine-1-carbonyl]-1H-pyrazol-1-yl}bicyclo[1.1.1]pentan-1-yl)-3,4-dihydro-2H-1-benzopyran-2-carboxamide]
EC50: < 10 nM

O=C(COc1ccc(Cl)c(F)c1)NC12CC(n3cc(OC[C@H]4C[C@@H](OC(F)(F)F)C4)cn3)(C1)C2 [Compound 612, 2-(4-chloro-3-fluorophenoxy)-N-[3-(4-{[(1s,3s)-3-(trifluoromethoxy)cyclobutyl]methoxy}-1H-pyrazol-1-yl)bicyclo[1.1.1]pentan-1-yl]acetamide]
EC50: < 10 nM

O=C(NC12CC(c3cc(OCCCOC(F)(F)F)ncn3)(C1)C2)[C@H]1C[C@@H](O)c2cc(Cl)ccc2O1 [Compound 648, (2R,4R)-6-chloro-4-hydroxy-N-(3-{6-[3-(trifluoromethoxy)propoxy]pyrimidin-4-yl}bicyclo[1.1.1]pentan-1-yl)-3,4-dihydro-2H-1-benzopyran-2-carboxamide]
EC50: < 10 nM

Cn1nc(C23CC(NC(=O)COc4ccc(Cl)c(F)c4)(C2)C3)cc1OC[C@H]1C[C@@H](OC(F)(F)F)C1 [Compound 387, 2-(4-chloro-3-fluorophenoxy)-N-[3-(1-methyl-5-{[cis-3-(trifluoromethoxy)cyclobutyl]methoxy}-1H-pyrazol-3-yl)bicyclo[1.1.1]pentan-1-yl]acetamide]
EC50: 50 to 250 nM

O=C(N[C@H]1CC[C@H](n2cc(OCCCOC(F)(F)F)cn2)CC1)[C@H]1C[C@@H](O)c2cc(Cl)c(F)cc2O1 [Compound 422, (2R,4R)-6-chloro-7-fluoro-4-hydroxy-N-[(1r,4R)-4-{4-[3-(trifluoromethoxy)propoxy]-1H-pyrazol-1-yl}cyclohexyl]-3,4-dihydro-2H-1-benzopyran-2-carboxamide]
EC50: < 10 nM
